Active and inactive are the calls of the source.
What was measured:
[1] = target: Heat shock protein HSP 90-alpha (Homo sapiens, UniProt P07900); test: Luminescence-based dose response biochemical high throughput screening assay for inhibitors of the Heat Shock Protein 90 (HSP90). [Related pubchem assays: 1831 (Summary AID.), 1846 (Confirmation screen.), 1789 (Primary screen.)]
[2] = non-specific 3'UTR reporter inhibition in Clone20-Shn3RL – cell-based, Renilla luciferase, cherry-picked, counter-screen for Shn3 inhibitor project, dose response (AID 624133); assay type: functional
INS1 = test: INS-1E survival protection against cytokine death – cell-based, luminescence, retest, dose response (AID 449756); assay type: functional; settings: Rattus norvegicus;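 also: cell death triggered by IL-1 beta plus TNF-alpha plus IFN-gamma mixture; protective hits raise ATP signal compared with cytokine alone wells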
[3] = reduction of Shn3 3'UTR-driven luciferase in osteoblasts – cell-based, Clone20 osteoblasts, firefly luciferase, cherry-picked, dose response (AID 624132); assay type: functional;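 also: firefly luciferase luminescence from reporter carrying the Shn3 3'UTR in osteoblasts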
[4] = target: T1, COUP transcription factor 2 (Homo sapiens, UniProt P24468); test: Luminescence-based cell-based high throughput dose response assay to identify inhibitors of COUP-TFII (NR2F2).; assay type: functional;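 also: HEK293 cells transiently cotransfected with COUP-TFII expression vector and reporter; luciferase reporter luminescence driven by COUP-TFII from the pX2-168 reporter plasmid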
T1 sequence (P24468 whole entry): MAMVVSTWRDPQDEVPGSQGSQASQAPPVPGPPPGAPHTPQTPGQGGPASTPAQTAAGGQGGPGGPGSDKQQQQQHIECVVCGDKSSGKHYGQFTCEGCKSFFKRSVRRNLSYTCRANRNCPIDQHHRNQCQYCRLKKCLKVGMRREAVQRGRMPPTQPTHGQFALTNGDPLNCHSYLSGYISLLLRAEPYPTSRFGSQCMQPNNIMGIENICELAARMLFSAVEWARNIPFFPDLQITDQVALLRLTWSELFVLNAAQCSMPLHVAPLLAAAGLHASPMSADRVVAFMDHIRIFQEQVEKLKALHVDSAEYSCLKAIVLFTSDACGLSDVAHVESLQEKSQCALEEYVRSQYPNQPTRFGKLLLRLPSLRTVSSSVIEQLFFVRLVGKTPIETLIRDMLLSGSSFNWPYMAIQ

Jurkat = test: blockers of NF-kB activation in T cells – Jurkat, luciferase reporter, luminescence, B- and T-cell, dose response (AID 489004); assay type: functional, cell-based; settings: Homo sapiens;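 also: NF-kB luciferase reporter Jurkat cells stimulated with PMA plus ionomycin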
[5] = HEK-293T viability loss, compound-treated – cell-based, uHTS hits, cytotoxicity control for B/T-cell NF-kB inhibitor project, dose response (AID 489019); assay type: functional;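 also: IC50 reflects cytotoxicity as loss of cell viability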
[6] = loss of viability in HepG2 cells – cell-based, CellTiter-Glo, cherry-picked, cytotoxicity control for Shn3 inhibitor project, dose response (AID 624134); assay type: functional
[7] = target: T2, Microphthalmia-associated transcription factor (Homo sapiens, UniProt O75030); test: reducers of TRPM1 reporter luminescence, concentration series – cell-based, SK-MEL-5, cherry-picked, set 3, MITF inhibitor project, dose response (AID 493073); assay type: functional;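 also: SK-MEL-5 melanoma cells with luciferase driven by the MITF target TRPM1 promoter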
T2 sequence (O75030 whole entry): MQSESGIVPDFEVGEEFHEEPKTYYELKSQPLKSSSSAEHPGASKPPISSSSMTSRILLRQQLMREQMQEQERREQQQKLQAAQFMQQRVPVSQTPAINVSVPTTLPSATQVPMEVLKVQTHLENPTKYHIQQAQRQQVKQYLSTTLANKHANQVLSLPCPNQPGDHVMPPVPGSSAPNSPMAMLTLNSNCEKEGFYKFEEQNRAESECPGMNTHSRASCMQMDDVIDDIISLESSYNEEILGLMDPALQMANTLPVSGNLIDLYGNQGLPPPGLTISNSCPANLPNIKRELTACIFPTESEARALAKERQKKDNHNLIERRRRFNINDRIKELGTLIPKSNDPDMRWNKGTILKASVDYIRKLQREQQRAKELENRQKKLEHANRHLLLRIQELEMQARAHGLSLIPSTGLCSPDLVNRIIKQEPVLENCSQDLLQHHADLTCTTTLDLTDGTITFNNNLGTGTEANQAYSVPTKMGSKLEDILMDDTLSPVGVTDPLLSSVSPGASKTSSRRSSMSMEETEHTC

[8] = target: T3, Tyrosine-protein phosphatase non-receptor type 7 (Homo sapiens, UniProt P35236); test: HePTP tyrosine phosphatase activity blockers – biochemical, absorbance, leukemia target, primary screen (AID 521); assay type: functional
T3 sequence (P35236 whole entry): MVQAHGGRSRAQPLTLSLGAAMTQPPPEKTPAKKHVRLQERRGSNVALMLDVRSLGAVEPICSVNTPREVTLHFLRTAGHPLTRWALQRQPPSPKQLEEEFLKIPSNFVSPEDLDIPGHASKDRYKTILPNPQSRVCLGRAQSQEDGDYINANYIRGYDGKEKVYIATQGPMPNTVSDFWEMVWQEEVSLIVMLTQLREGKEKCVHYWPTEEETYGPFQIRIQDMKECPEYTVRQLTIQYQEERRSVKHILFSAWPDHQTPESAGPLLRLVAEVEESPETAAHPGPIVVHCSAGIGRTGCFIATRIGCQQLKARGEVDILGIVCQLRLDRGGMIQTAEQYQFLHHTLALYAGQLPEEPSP

[9] = target: FAD-linked sulfhydryl oxidase ALR (Homo sapiens, UniProt P55789); test: ALR-catalysed DTT oxidation blockers – biochemical, H2O2 detection, luminescence, cherry-pick, dose response (AID 493248)
Leucine aminopeptidase = target: T4, Leucine aminopeptidase (Plasmodium falciparum 3D7, UniProt Q8IL11); test: P. falciparum M17LAP inhibitors, primary screen, biochemical, fluorogenic H-Leu-NHMec substrate, 1536-well (AID 1619); assay type: functional
T4 sequence (Q8IL11 whole entry): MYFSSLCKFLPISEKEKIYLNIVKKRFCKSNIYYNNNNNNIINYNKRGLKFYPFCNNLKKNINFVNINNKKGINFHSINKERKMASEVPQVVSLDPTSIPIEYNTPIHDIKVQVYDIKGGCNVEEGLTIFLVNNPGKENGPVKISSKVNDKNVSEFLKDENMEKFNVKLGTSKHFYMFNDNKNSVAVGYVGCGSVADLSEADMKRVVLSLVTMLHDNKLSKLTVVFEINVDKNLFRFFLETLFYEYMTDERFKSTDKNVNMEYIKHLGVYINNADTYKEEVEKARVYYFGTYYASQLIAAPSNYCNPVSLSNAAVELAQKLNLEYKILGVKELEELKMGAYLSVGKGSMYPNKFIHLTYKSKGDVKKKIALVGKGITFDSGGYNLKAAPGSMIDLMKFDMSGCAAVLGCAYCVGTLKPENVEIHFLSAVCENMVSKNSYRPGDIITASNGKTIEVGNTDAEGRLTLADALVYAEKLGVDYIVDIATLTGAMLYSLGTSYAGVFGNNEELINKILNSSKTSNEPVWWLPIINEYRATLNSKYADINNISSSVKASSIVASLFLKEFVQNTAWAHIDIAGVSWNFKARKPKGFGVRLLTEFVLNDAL

H4 = test: Luminescence Cell-Based Dose Response HTS to Identify Activators of 5'UTR Stem-Loop Driven Prion Protein mRNA Translation in H4 Neuroglioblastoma Cells. [Related pubchem assays: 1829 (Project Summary), 1814 (Primary HTS)]; assay type: functional; settings: Homo sapiens
[10] = Luminescence Cell-Based Dose Confirmation HTS to Identify Activators of 5'UTR Stem-Loop Driven Alpha-Synuclein mRNA Translation in H4 Neuroglioblastoma Cells. [Related pubchem assays: 1829 (Project Summary), 1814 (Primary HTS)]; assay type: functional
[11] = Luminescence Cell-Based Dose Response HTS to Identify Activators of Luciferase Translation or Activity in H4 […] Cells. [Related pubchem assays: 1829 (Project Summary), 1814 (Primary HTS)]; assay type: functional
[12] = Trypanosoma cruzi growth suppression in host cells – NIH3T3 host cells, beta-gal luminescence, confirmation (AID 2044); assay type: functional, cell-based;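 also: intracellular parasites grown in NIH/3T3 mouse fibroblasts as host cells; luminescent beta-galactosidase reporter signal from transgenic T. cruzi replicating inside host cells; inhibitors lower the luminescence signal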
[13] = NIH3T3 cell viability loss – ATP luminescence, mouse fibroblasts, counter-screen, dose response (AID 2010); assay type: functional, cell-based;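 also: cells exposed to compound for about 90 hours before reading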
[14] = viability loss in Vero cells – cytotoxicity control for Vif-APOBEC3G degradation inhibitor project, dose response (AID 1117358); assay type: functional; settings: Vero
[15] = HIV-1 Vif–A3G interaction blockers – biochemical, TR-FRET, GST-Vif 1-94, biotin-A3G peptide, dose response retest, primary screen (AID 1117319); assay type: functional;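 also: TR-FRET signal of purified GST-Vif binding a biotinylated A3G peptide; inhibitors lower the FRET signal by blocking Vif and A3G binding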
[16] = target: T5, Aryl hydrocarbon receptor (Homo sapiens, UniProt P35869); test: Luminescence-based cell-based high throughput dose response assay for activators of the Aryl Hydrocarbon Receptor (AHR). [Related pubchem assays: 2796 (Primary screen (AHR activators in singlicate)), 2845 (Confirmation screen (AHR activators in triplicate)), 434939 (Counterscreen (PXR activators in triplicate)), 2804 (Summary (AHR activators))]; assay type: ADME
T5 sequence (P35869 whole entry): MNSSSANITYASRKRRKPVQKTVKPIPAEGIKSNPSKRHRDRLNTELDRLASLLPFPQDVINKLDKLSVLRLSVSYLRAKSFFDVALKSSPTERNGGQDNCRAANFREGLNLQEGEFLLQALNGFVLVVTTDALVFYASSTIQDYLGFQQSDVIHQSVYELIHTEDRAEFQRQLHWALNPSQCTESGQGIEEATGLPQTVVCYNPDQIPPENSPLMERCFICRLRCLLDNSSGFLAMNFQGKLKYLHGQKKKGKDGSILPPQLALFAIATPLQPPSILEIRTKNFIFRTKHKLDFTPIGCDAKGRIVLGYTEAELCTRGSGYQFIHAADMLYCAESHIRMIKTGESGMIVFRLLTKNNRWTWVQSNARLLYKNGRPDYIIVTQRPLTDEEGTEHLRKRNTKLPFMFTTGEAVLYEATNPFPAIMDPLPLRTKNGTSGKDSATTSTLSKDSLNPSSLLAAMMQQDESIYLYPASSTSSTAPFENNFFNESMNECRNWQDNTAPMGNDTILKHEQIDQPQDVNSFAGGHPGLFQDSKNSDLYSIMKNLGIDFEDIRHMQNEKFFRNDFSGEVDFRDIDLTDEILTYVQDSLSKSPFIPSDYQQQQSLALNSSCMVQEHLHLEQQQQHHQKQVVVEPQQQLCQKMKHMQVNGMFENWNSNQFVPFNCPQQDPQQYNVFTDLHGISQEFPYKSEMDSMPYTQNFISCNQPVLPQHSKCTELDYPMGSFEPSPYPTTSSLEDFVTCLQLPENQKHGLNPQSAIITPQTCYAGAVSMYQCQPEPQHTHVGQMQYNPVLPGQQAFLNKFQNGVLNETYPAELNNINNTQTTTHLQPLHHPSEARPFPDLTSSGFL

[17] = target: Mitogen-activated protein kinase 10 (Homo sapiens, UniProt P53779); test: Dose response biochemical screening assay for inhibitors of c-Jun N-Terminal Kinase 3 (JNK3). [Related pubchem assays: 746 ]
Mitogen-activated protein kinase 10, sequence (P53779 whole entry): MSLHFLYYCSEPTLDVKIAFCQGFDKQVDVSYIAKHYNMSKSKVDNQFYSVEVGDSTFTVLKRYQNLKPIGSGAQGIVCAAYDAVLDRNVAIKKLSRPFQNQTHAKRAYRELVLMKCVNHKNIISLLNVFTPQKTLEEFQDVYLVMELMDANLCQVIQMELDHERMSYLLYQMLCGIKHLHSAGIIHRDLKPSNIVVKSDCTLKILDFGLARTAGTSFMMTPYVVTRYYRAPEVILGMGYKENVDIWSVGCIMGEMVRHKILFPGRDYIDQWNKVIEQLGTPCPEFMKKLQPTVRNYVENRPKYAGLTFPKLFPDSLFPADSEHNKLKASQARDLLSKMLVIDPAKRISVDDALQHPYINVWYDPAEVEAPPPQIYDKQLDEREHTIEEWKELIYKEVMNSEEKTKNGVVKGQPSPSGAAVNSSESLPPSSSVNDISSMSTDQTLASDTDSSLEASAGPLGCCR

FAD-linked sulfhydryl oxidase ALR, sequence (P55789 whole entry): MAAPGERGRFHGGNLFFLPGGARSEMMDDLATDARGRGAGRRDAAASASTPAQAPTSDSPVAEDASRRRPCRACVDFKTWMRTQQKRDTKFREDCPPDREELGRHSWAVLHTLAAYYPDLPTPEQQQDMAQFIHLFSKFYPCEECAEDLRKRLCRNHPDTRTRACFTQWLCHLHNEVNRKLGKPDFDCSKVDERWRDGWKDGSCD

C=CCOc1c(CNc2cccc(C(=O)O)c2)cccc1OC
IC50 [1]: 2.39 µM (active)

COc1cc(NC(=O)COc2cc(O)c3c(c2)OC(C)(C)CC3=O)cc(OC)c1OC
AC50 [2]: 0.727 µM (active)
AC50 (INS1): 3.99 µM (active)
AC50 [3]: 0.354 µM (active)
IC50 [4]: 2.54 µM (active)
IC50 (Jurkat): 39.9 µM (inactive)
IC50 [5]: 69.1 µM (inactive)
AC50 [6]: 2.04 µM (active)
AC50 [7]: 5.36 µM (active)

CC(=O)OCC1=C(C(=O)O)N2C(=O)[C@@H](NC(=O)Cc3cccs3)[C@H]2SC1 [CEPHALOTHIN SODIUM]
IC50 [8]: 0.92 µM (active)

COc1cc(N2Cc3ccccc3C2)ccc1C=O
IC50 [1]: > 7 µM (active)

COc1cc(/C=N/Nc2ccc(Cl)c(C(=O)O)c2)ccc1OC(=O)c1cccs1
IC50 [1]: 1.32 µM (active)
AC50 [9]: 5.23 µM (active)
IC50 (Leucine aminopeptidase): 55.5 µM (active)

Fc1ccc(C(CCCn2nnc(-c3cccnc3)n2)c2ccc(F)cc2)cc1
EC50 (H4): > 120 µM (not active)
EC50 [10]: 13.7 µM (active)
EC50 [11]: 16.3 µM (active)
EC50 [12]: 2.22 µM (active)
EC50 [13]: > 30 µM (not active)
CC50 [14]: > 40 µM (active)

COc1ccc(S(=O)(=O)NC2CC(C)(C)NC(C)(C)C2)c(C)c1C
IC50 [15]: > 100 µM (active)

CCc1ccc(N/C(SCc2cccc(F)c2)=C(/C#N)C(=O)NCc2ccco2)cc1
EC50 [12]: 1.7 µM (active)
EC50 [13]: 10.4 µM (active)
CC50 [14]: > 40 µM (active)

O=C(NC(=S)Nc1ccc(F)c(Cl)c1)C1CC1
EC50 [16]: 0.861 µM (active)

Cc1ccccc1-n1nc(C)c2cc(C(=O)NCc3cccnc3)sc21
IC50 [17]: 10.6 µM (not active)

Source: ChEMBL document CHEMBL1201862, “PubChem BioAssay data set” (2004)
